Holding throughout (type): in vivo
In assay [1] the test system is rice crop. The assay can be described thus: Number of tillers and productive tillers per hill in rice crop. To be noted: for No. of tillers/hill at 45 DAA / No. of productive tillers/hill at heading: rice, GR, g a.i./ha: Flupyrimin 150, Cartap 1000, Cartap + EMA 581, Fipronil 60.
The subject of assay [2] is rice crop. The assay can be described thus: Dead heart count in rice crop. The conditions noted are these: GR, g a.i./ha: Flupyrimin 150, Cartap 1000, Cartap + EMA 581, Fipronil 60; for Dead hearts (count) 7 DAA: 7 days after application; for Dead hearts (count) 14 DAA: 14 days after application; for Dead hearts (count) 21 DAA: 21 days after application; for Dead hearts (count) 28 DAA: 28 days after application; for Dead hearts (count) Pre-count: pre-count before application. The source says:
(§1) Injury in plants is often first noticed when the youngest partially unfurled leaf of the plant begins to whiter and die, resulting in a condition called dead heart. Dead hearts can be caused by any stem borer. Typical bore holes will be seen on the stem. Usually, a single larva is seen inside the stem. It remains inside the stem and feeds on the internal contents. The shoot of the affected plant can be pulled off easily, a symptom known as dead heart. At maturity, the grains become chaffy, which is known as white ear and eventually the whole plant finally dies.
(§2) The phytotonic effect of flupyrimin in rice crop in terms of the dead heart count, number of ears, productive tillers/hill and the hill stability were determined.
The observations were made at 7DAA, 14 DAA, 21 DAA and 28 DAA (days after application).

Assay [3] concerns rice crop. The assay can be described thus: White ear count in rice crop. The conditions noted are these: GR, g a.i./ha: Flupyrimin 150, Cartap 1000, Cartap + EMA 581, Fipronil 60.
From the text: as §1, §2

The subject of assay [4] is wheat. Description: % germination of wheat seed after seed treatment. The conditions noted are these: seed treatment 500 g/L FS. The procedure: The present inventors have observed the phytotonic effect of flupyrimin in wheat by determining the % germination, plant height, root length (cm) and plant vigor The seeds were treated with 500 g/L flupyrimin flowable concentrate (FS) formulation. […]

The test system of assay [5] is wheat. Description: Plant height, root length, tillers and plant vigor in wheat after seed treatment. The procedure:
The present inventors have observed the phytotonic effect of flupyrimin in wheat by determining the % germination, plant height, root length (cm) and plant vigor The seeds were treated with 500 g/L flupyrimin flowable concentrate (FS) formulation. The observations were made at 30 DAS and 45 DAS (days after seeding).

Assay [6] concerns Nilaparvata lugens BPH (Brown plant hopper). The assay can be described thus: Brown plant hopper infestation after application. The conditions noted are these: up-to 45 Days After application of composition comprising flupyrimin and/or a salt thereof.
Assay [7] has as its system rice. Description: Hill stability test (tiller sturdiness, girth) in rice. The conditions noted are these: flupyrimin composition (2% GR). The procedure: The hill stability test was performed to determine the tiller strength of the hill. Accordingly, rice was subjected to flupyrimin treatment at 23 days after transplanting (DAT) and observations were taken at 20 DAA (days after application).
Hill stability is an important plant growth feature, as it protects the crop from lodging. It becomes especially important in tall varieties and in areas prone to high winds, cyclones, heavy rains etc. Due to hill stability, the plant is able to sustain the natural forces. Hill stability is also important in case of high pest and disease pressure, which makes the plant weak and loses the tiller strength.

Assay [8] relates to mustard. The assay can be described thus: Plant height, root length and plant vigor in mustard after seed treatment. To be noted: 500 g/L FS. The procedure:
The present inventors have observed the phytotonic effect of flupyrimin in mustard seeds by determining the % germination, plant height, root length (cm) and plant vigor. The seeds were treated with 500 g/L flupyrimin flowable concentrate (FS) formulation. The observations were made at 30 DAS and 45 DAS (days after seeding).

In assay [9] the test system is wheat. Description: Yield and test weight in wheat after seed treatment. Further details: Test weight (1000 grain weight): unit not given here.
[10] abbreviates: 1.2 g AI/kg of seed (2.4 ml/kg).
The mark [11] stands for this setting: 2.0 g AI/kg of seed (4.0 ml/kg).

The structures appear in SMILES notation.

With `CN(C)C(CSC(N)=O)CSC(N)=O` [Cartap], in [1], the “No. of tillers/hill at 45 DAA” value is recorded as 18.07 and the “No. of productive tillers/hill at heading” value is given as 13.77. In addition, in assay [2], the “Dead hearts (count) 7 DAA” value stood at 0.21 count, the “Dead hearts (count) 14 DAA” value came to 1.54 count, the “Dead hearts (count) 21 DAA” value was determined as 3.08 count and the “Dead hearts (count) 28 DAA” value amounted to 2.17 count. In addition, the “Dead hearts (count) Pre-count” value in assay [2] was 0.00 count. Besides, the “White ear/hill at heading” value in assay [3] came to 2.33.

On to `N#Cc1nn(-c2c(Cl)cc(C(F)(F)F)cc2Cl)c(N)c1[S+]([O-])C(F)(F)F` (centres unmarked) [Fipronil], for which, in assay [1], the “No. of tillers/hill at 45 DAA” value is reported as 19 and the “No. of productive tillers/hill at heading” value turned out to be 15.63. Also, in [2], the “Dead hearts (count) 7 DAA” value is recorded as 0.00 count, the “Dead hearts (count) 14 DAA” value amounted to 0.40 count, the “Dead hearts (count) 21 DAA” value worked out at 2.19 count and the “Dead hearts (count) 28 DAA” value came out at 1.24 count. For the same compound, in assay [2], the “Dead hearts (count) Pre-count” value is given as 0.00 count. Further, the “White ear/hill at heading” value in assay [3] came to 1.27.

Consider `O=C(/N=c1\ccccn1Cc1ccc(Cl)nc1)C(F)(F)F` [Flupyrimin, N-[(E)-1-(6-chloro-3-pyridinylmethyl)pyridin-2 (1H)-ylidene]-2,2,2-trifluoroacetamide], for which, in [1] (rice crop, granular formulation), the “Greater number of tillers against the market standards (average)” value is on record as 2-3. Further, in [1], the “No. of tillers/hill at 45 DAA” value stood at 22.47 and the “No. of productive tillers/hill at heading” value was 19.63. Further, in assay [4] (setting [10]), the “% Germination of Wheat Seed 6 DAS” value is reported as 92.0%, the “% Germination of Wheat Seed 9 DAS” value is 93.0% and the “% Germination of Wheat Seed 12 DAS” value is on record as 95.5%. In [4] (setting [11]), the “% Germination of Wheat Seed 6 DAS” value stood at 92.0%, the “% Germination of Wheat Seed 9 DAS” value was 93.8% and the “% Germination of Wheat Seed 12 DAS” value came out at 96.0%. In [5] (setting [10]), the “No. of tillers/plant 30 DAS” value came out at 5.8, the “Plant Height (cm) 30 DAS” value stood at 42.4 cm, the “Plant Vigor (0-5 Index scale) 30 DAS” value is 5.0 0-5 Index scale and the “Root length (cm) 30 DAS” value stood at 11.5 cm. In [5] (setting [10]), the “No. of tillers/plant 45 DAS” value was determined as 6.4, the “Plant Height (cm) 45 DAS” value is on record as 57.9 cm, the “Plant Vigor (0-5 Index scale) 45 DAS” value is listed as 5.0 0-5 Index scale and the “Root length (cm) 45 DAS” value was 12.3 cm. Also, in assay [5] (setting [11]), the “No. of tillers/plant 30 DAS” value is reported as 5.8, the “Plant Height (cm) 30 DAS” value is reported as 43.3 cm, the “Plant Vigor (0-5 Index scale) 30 DAS” value is 5.0 0-5 Index scale and the “Root length (cm) 30 DAS” value was 11.8 cm. Further, in assay [5] (setting [11]), the “No. of tillers/plant 45 DAS” value came to 6.5, the “Plant Height (cm) 45 DAS” value is given as 58.1 cm, the “Plant Vigor (0-5 Index scale) 45 DAS” value is listed as 5.0 0-5 Index scale and the “Root length (cm) 45 DAS” value is 12.7 cm. Moreover, the “Nilaparvata lugens BPH infestation” value in assay [6] is “no Nilaparvata lugens BPH (Brown plant hopper) infestation is found”. Further, the “Girth of tillers compared to untreated rice” value in assay [7] is “almost twice the girth”. In addition, in [2], the “Dead hearts (count) 7 DAA” value was 0.00 count, the “Dead hearts (count) 14 DAA” value is listed as 0.00 count, the “Dead hearts (count) 21 DAA” value is given as 0.04 count and the “Dead hearts (count) 28 DAA” value was found to be 0.01 count. The “Dead hearts (count) Pre-count” value in [2] was determined as 0.00 count. In addition, in assay [8] (4 g AI/kg of seed (8 ml/kg)), the “Plant Height (cm) 30 DAS” value stood at 21.7 cm, the “Plant Vigor (0-5 Index scale) 30 DAS” value is listed as 5.0 0-5 Index scale, the “Root length (cm) 30 DAS” value turned out to be 18.2 cm and the “Plant Height (cm) 45 DAS” value amounted to 93.2 cm. In [8] (4 g AI/kg of seed (8 ml/kg)), the “Plant Vigor (0-5 Index scale) 45 DAS” value is on record as 5.0 0-5 Index scale and the “Root length (cm) 45 DAS” value stood at 20.8 cm. In addition, in assay [8] (6 g AI/kg of seed (12 ml/kg)), the “Plant Height (cm) 30 DAS” value is listed as 22.8 cm, the “Plant Vigor (0-5 Index scale) 30 DAS” value is given as 5.0 0-5 Index scale, the “Root length (cm) 30 DAS” value is on record as 18.3 cm and the “Plant Height (cm) 45 DAS” value was 95.6 cm. Moreover, in assay [8] (6 g AI/kg of seed (12 ml/kg)), the “Plant Vigor (0-5 Index scale) 45 DAS” value is given as 5.0 0-5 Index scale and the “Root length (cm) 45 DAS” value is listed as 21.1 cm. Also, in assay [9] (setting [10]), the “Test weight (1000 grain weight)” value is 55.3 and the “Yield (Qt/ha)” value is listed as 37.4 Qt/ha. Besides, in [9] (setting [11]), the “Test weight (1000 grain weight)” value is 56.5 and the “Yield (Qt/ha)” value is 37.8 Qt/ha. Besides, the “White ear/hill at heading” value in assay [3] worked out at 0.17.
